From paper PMC7718255, “Structural characterization and in vitro lipid binding studies of non-specific lipid transfer protein 1 (nsLTP1) from fennel (Foeniculum vulgare) seeds” (Scientific Reports, 2020)

Molecular target: T1, fennel nsLTP1 (Anethum foeniculum, UniProt C0HLP9)
T1 construct: native mature protein purified from seeds (gel filtration, RP-HPLC); 91 residues, 9433 Da, monomer
T1 sequence (C0HLP9 1-91): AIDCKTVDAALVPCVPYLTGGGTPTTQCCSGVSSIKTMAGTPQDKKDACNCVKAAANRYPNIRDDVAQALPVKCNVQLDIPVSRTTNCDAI
Assay: TNS fluorescence displacement
Assay type: binding
Conditions: 3.5 µM TNS, 4 µM nsLTP1, fatty acid 5-20 µM; 175 mM mannitol, 0.5 mM K2SO4, 0.5 mM CaCl2, 5 mM MES pH 7.0, 25 °C; competitive with TNS

Row | % of the control fluorescence (nsLTP1-TNS complex) | SMILES
1 | 4–40% | CCCCC/C=C\C/C=C\CCCCCCCC(=O)O [linoleic acid, cis, cis-9,12-Octadecadienoic acid]
2 | 7–59% | CC/C=C\C/C=C\C/C=C\CCCCCCCC(=O)O [linolenic acid, all-cis-9,12,15-octadecatrienoic acid]
3 | 40–69% | CCCCCCCCCCCCCCCC(=O)O [palmitic acid]
4 | 21–59% | CCCCCCCCCCCCCCCCCC(=O)O [stearic acid]
